The record followed here is patent publication US8912120B2, “Herbicidal compositions comprising 4-amino-3-chloro-5-fluoro-6-(4-chloro-2-fluoro-3-methoxyphenyl) pyridine-2-carboxylic acid or a derivative thereof and synthetic auxin herbicides” (Dow AgroSciences, LLC., priority 2012, dated 2014).

Assay [1] concerns CYPRO. Kind of assay: Example II: in-water applied herbicidal mixtures, weed control in transplanted paddy rice (greenhouse), CYPRO. Conditions: 22 DAA. It is filed as in vivo, Cyperus rotundus (purple nutsedge). How it is done: (§1) The prepared mud was dispensed in 365 mL aliquots into 16-ounce (oz.) non-perforated plastic pots with a surface area of 86.59 square centimeters (cm^2) leaving a headspace of 3 centimeters (cm) in each pot Mud was allowed to dry overnight prior to planting or transplanting. Rice seeds were planted in Sun Gro MetroMix® 306 planting mixture, which typically has a pH of 6.0 to 6.8 and an organic matter content of about 30 percent, in plastic plug trays. Seedlings at the second or third leaf stage of growth were transplanted into 840 mL of mud contained in 32-oz. non-perforated plastic pots with a surface area of 86.59 cm^2 4 days prior to herbicide application. […] Nutrients were added as Osmocote® (19:6:12, N:P:K^+ minor nutrients) at 2 g per 16-oz. pot and 4 g per 32-oz. pot.
(§2) Applications were made by injecting with a pipetter appropriate amounts of the application solutions, individually and sequentially, into the aqueous layer of the paddy. Control plants were treated in the same manner with the solvent blank. Applications were made so that all treated plant material received the same concentrations of acetone and crop oil concentrate.

For assay [2], the system named is ECHCG. The assay is described as follows: Example II: in-water applied herbicidal mixtures, transplanted paddy rice, ECHCG. It is filed as in vivo, Echinochloa crus-galli (barnyardgrass). How it is done:
as §1, §2

Assay [3] has as its system ECHOR. Kind of assay: Example II: in-water applied herbicidal mixtures, transplanted paddy rice, ECHOR. Conditions: Echinochloa oryzoides. It is filed as in vivo, Echinochloa oryzoides (early watergrass). How it is done: as §1, §2
Assay [4] concerns FIMMI. Kind of assay: Example II: in-water applied herbicidal mixtures, transplanted paddy rice, FIMMI. In kind it is in vivo, Fimbristylis miliacea (globe fringerush). Conditions: 22 DAA. The procedure: as §1, §2
Assay [5] concerns LEFCH. Kind of assay: Example II: in-water applied herbicidal mixtures, transplanted paddy rice, LEFCH. In kind it is in vivo, Leptochloa chinensis (Chinese sprangletop). Conditions: 22 DAA. The procedure: as §1, §2
Assay [6] has as its system SCPJU. The assay is described as follows: Example II: in-water applied herbicidal mixtures, transplanted paddy rice, SCPJU. In kind it is in vivo, Schoenoplectus juncoides (Japanese bulrush). Conditions: 22 DAA. The procedure:
as §1, §2

Assay [7] concerns CYPIR. Kind of assay: Example I: postemergence foliar-applied herbicidal mixtures, direct seeded rice, CYPIR. It is filed as in vivo, Cyperus iria (rice flatsedge).
Description: (§8) The soil matrix was contained in plastic pots with a volume of 1 quart and a surface area of 83.6 square centimeters (cm^2). […] The plants were grown for 8-22 days in a greenhouse with an approximate 14 h photoperiod which was maintained at about 29° C. during the day and 26° C. during the night. Nutrients (Peters Excel® 15-5-15 5-Ca 2-Mg and iron chelate) were applied in the irrigation solution as needed and water was added on a regular basis. Supplemental lighting was provided with overhead metal halide 1000-Watt lamps as necessary. The plants were employed for testing when they reached the first through fourth true leaf stage.
(§9) Treatments consisted of the acid or esters of 4-amino-3-chloro-5-fluoro-6-(4-chloro-2-fluoro-3-methoxy-phenyl)pyridine-2-carboxylic acid (Compound A), each formulated as an SC (suspension concentrate), and various herbicidal components alone and in combination. Forms of compound A were applied on an acid equivalent basis.
(§10) For treatments comprised of formulated compounds, measured amounts of compounds were placed individually in 25 mL glass vials and diluted in a volume of 1.25% (v/v) Agri-Dex® crop oil concentrated to obtain 12× stock solutions. […] Application solutions were prepared by adding an appropriate amount of each stock solution (e.g., 1 mL) and diluted to the appropriate final concentrations with the addition of 10 mL of an aqueous mixture of 1.25% (v/v) crop oil concentrate so that the final spray solutions contained 1.25+/−0.05% (v/v) crop oil concentrate.
(§11) All stock solutions and applications solutions were visually inspected for compound compatibility prior to application. Spray solutions were applied to the plant material with an overhead Mandel track sprayer equipped with a 8002E nozzles calibrated to deliver 187 L/ha over an application area of 0.503 m^2 at a spray height of 18 to 20 inches (46 to 50 cm) above average plant canopy height. Control plants were sprayed in the same manner with the solvent blank.
(§12) The treated plants and control plants were placed in a greenhouse as described above and watered by sub-irrigation to prevent wash-off of the test compounds. After approximately 3 weeks, the condition of the test plants as compared with that of the untreated plants was determined visually and scored on a scale of 0 to 100 percent where 0 corresponds to no injury or growth inhibition and 100 corresponds to complete kill.
(§13) Colby's equation was used to determine the herbicidal effects expected from the mixtures (Colby, S. R. 1967. Calculation of the synergistic and antagonistic response of herbicide combinations. Weeds 15:20-22).
(§14) The following equation was used to calculate the expected activity of mixtures containing two active ingredients, A and B: Expected=A+B−(A×B/100)
(§15) A=observed efficacy of active ingredient A at the same concentration as used in the mixture.
(§16) B=observed efficacy of active ingredient B at the same concentration as used in the mixture.
The subject of assay [8] is LEFCH. The assay is described as follows: Example I: postemergence foliar-applied herbicidal mixtures, direct seeded rice, LEFCH. In kind it is in vivo, Leptochloa chinensis (Chinese sprangletop).
For assay [9], the system named is SCPMA. Kind of assay: Example II: in-water applied herbicidal mixtures, transplanted paddy rice, SCPMA. It is filed as in vivo. The procedure: as §1, §2
The test system of assay [10] is CASOB. Kind of assay: Example V: postemergence herbicidal activity of mixtures in forage crops (greenhouse), CASOB. Conditions: alone, 50 gae/ha, foliar, approximately 21 days. In kind it is in vivo, Cassia obtusifolia (sicklepod). The procedure: (§3) Seeds or root cuttings of the desired test plant species were planted in Sun Gro MetroMix® 306 planting mixture, which typically has a pH of 6.0 to 6.8 and an organic matter content of about 30 percent, in plastic pots with a surface area of 126.6 square centimeters (cm^2). […] The plants were grown for 14-60 days in a greenhouse with an approximate 14 hour photoperiod which was maintained at approximately 28° C. during the day and 24° C. during the night.
(§4) Spray solutions of the second herbicide or experimental compound mixtures were prepared by adding the stock solutions to the appropriate amount of dilution solution to form 12 mL spray solution with active ingredients in two-way combinations.

Assay [11] has as its system SIDSP. The assay is described as follows: Example V: postemergence herbicidal activity of mixtures in forage crops, SIDSP. The note with it: alone, 50 gae/ha, foliar, approximately 21 days. In kind it is in vivo, Sida spinosa (prickly sida). The procedure:
as §3, §4

Assay [12] relates to SINAR. The assay is described as follows: Example V: postemergence herbicidal activity of mixtures in forage crops, SINAR. Conditions: alone, 50 gae/ha, foliar, approximately 21 days. It is filed as in vivo, Sinapis arvensis (wild mustard). The procedure:
as §3, §4

Assay [13] has as its system ECHCO. The assay is described as follows: Example I: postemergence foliar-applied herbicidal mixtures, direct seeded rice, ECHCO.
Assay [14] deals with CYPES. Kind of assay: Example I: postemergence foliar-applied herbicidal mixtures, direct seeded rice, CYPES. In kind it is in vivo, Cyperus esculentus (yellow nutsedge).
Description: as §8, §9, §10, §11, §12, §13
The following equation was used to calculate the expected activity of mixtures containing two active ingredients, A and B: Expected=A+B−(A×B/100) […]
In assay [15] the test system is ISCRU. Kind of assay: Example I: postemergence foliar-applied herbicidal mixtures, direct seeded rice, ISCRU. In kind it is in vivo, Ischaemum rugosum (saramollagrass).
Description: as §8, §9, §10, §11, §12, §13, §14, §15, §16
Assay [16] has as its system AMARE. The assay is described as follows: Example IV: postemergence foliar-applied herbicidal mixtures, weed control in cereal crops in the greenhouse, AMARE. In kind it is in vivo, Amaranthus retroflexus (redroot pigweed). The note with it: alone, 140 gai/ha, 20-22 days. How it is done:
(§5) Seeds of the desired test plant species were planted in Sun Gro MetroMix 306 planting mixture, which typically has a pH of 6.0 to 6.8 and an organic matter content of about 30 percent, in plastic pots with a surface area of 103.2 square centimeters (cm^2). […] The plants were grown for 7-36 days in a greenhouse with an approximate 14 hour photoperiod which was maintained at about 18° C. during the day and 17° C. during the night.
(§6) Spray solutions of the second cereal herbicide and experimental compound mixtures were prepared by adding the stock solutions to the appropriate amount of dilution solution to form 12 mL spray solution with active ingredients in two- and three-way combinations.

In assay [17] the test system is POLCO. The assay is described as follows: Example IV: postemergence foliar-applied herbicidal mixtures, cereal crops, POLCO. The note with it: alone, 140 gai/ha, foliar, 20-22 days. It is filed as in vivo, Polygonum convolvulus (wild buckwheat). How it is done: as §5, §6
The test system of assay [18] is VIOTR. Kind of assay: Example IV: postemergence foliar-applied herbicidal mixtures, cereal crops, VIOTR. In kind it is in vivo, Viola tricolor (wild pansy). The note with it: alone, 140 gai/ha, foliar, 20-22 days. The procedure: as §5, §6
Assay [19] concerns CYPIR. The assay is described as follows: Example II: in-water applied herbicidal mixtures, transplanted paddy rice, CYPIR. Conditions: 21 DAA; 560 gai/ha. It is filed as in vivo, Cyperus iria L. (flatsedge.
Assay [20] relates to DIGSA. The assay is described as follows: Example I: postemergence foliar-applied herbicidal mixtures, direct seeded rice, DIGSA. The note with it: 560 gai/ha.
Description: as §8, §9, §10, §11, §12, §13, §14, §15, §16
For assay [21], the system named is ECHCG. Kind of assay: Example I: postemergence foliar-applied herbicidal mixtures, direct seeded rice, ECHCG.
For assay [22], the system named is ELEIN. The assay is described as follows: Example III: postemergence foliar-applied herbicidal mixtures, weeds common to row crops such as corn and soybeans (greenhouse), ELEIN. The note with it: 17 DAA. In kind it is in vivo, Eleusine indica (goosegrass). How it is done: (§7) The plants were grown for 7-31 days (d) in a greenhouse with an approximate 15 hour (h) photoperiod which was maintained at about 23-29° C. during the day and 22-28° C. during the night.

Assay [23] deals with SORHA. Kind of assay: Example III: postemergence foliar-applied herbicidal mixtures, row crop weeds, SORHA. The note with it: 13 DAA; 7.5 gae/ha. In kind it is in vivo, Sorghum halepense (johnsongrass). The procedure:
as §7

Where a name gives a salt, the structure may show the parent alone. Read-outs that look alike come from different tables or passages of the source.

`O=C(O)COc1nc(Cl)c(Cl)cc1Cl` [Triclopyr Choline Salt, 2-hydroxy-N,N,N-trimethylethanaminium 2-((3,5,6-trichloropyridin-2-yl)oxy)acetate, reference compound]: the “Visual Weed Control (%) Obs” value in assay [1] (70 gae/ha) is 0%; in assay [1] (140 gae/ha), 0%; in assay [2] (22 DAA, 70 gae/ha), 15%; in assay [2] (22 DAA, 140 gae/ha), 20%; in [4] (70 gae/ha) it was 15%; in assay [4] (140 gae/ha), 80%. For the same compound, the “Visual Weed Control (%) Obs” value in assay [5] (70 gae/ha) was found to be 0%; in assay [5] (140 gae/ha), 0%; in [6] (70 gae/ha), 15%; in assay [6] (140 gae/ha) it was 50%. Further, the pest or weed control at 70 g/ha in assay [3] (528 h, 22 DAA, 70 gae/ha, read-out: Visual Weed Control (%) Obs) worked out at 10%. Also, in assay [3] (528 h, 22 DAA, 140 gae/ha, read-out: Visual Weed Control (%) Obs), the pest or weed control at 140 g/ha turned out to be 15%.

Turning to `COc1c(Cl)ccc(Cl)c1C(=O)O` [Dicamba DMA Salt, 3,6-dichloro-2-methoxybenzoic acid compound with N-methylmethanamine, reference compound], the “Visual Weed Control (%) - 20 DAA CYPIR Obs” value in [7] (70 gae/ha) is 0%; in [7] (140 gae/ha), 0%; in [7] (280 gae/ha) it was 35%. Also, the “Visual Weed Control (%) - 20 DAA LEFCH Obs” value in [8] (140 gae/ha) and in [8] (280 gae/ha) was 0% in each case. The “Visual Weed Control (%) Obs” value stood at 0% in assay [2] (21 DAA, 140 gae/ha); 10% in [2] (21 DAA, 280 gae/ha); 0% in assay [9] (21 DAA, 140 gae/ha); 0% in assay [9] (21 DAA, 140 gai/ha); 0% in [9] (21 DAA, 280 gae/ha). Besides, the pest or weed control at 140 g/ha in [3] (504 h, read-out: Visual Weed Control (%) Obs, 21 DAA, 140 gae/ha) is 10%; in [3] (504 h, read-out: Visual Weed Control (%) Obs, 21 DAA, 140 gai/ha), 10%. For the same compound, the pest or weed control at 280 g/ha in assay [3] (504 h, read-out: Visual Weed Control (%) Obs, 21 DAA, 280 gae/ha) came to 15%; in assay [3] (504 h, read-out: Visual Weed Control (%) Obs, 21 DAA, 280 gai/ha) it was 15%. Besides, in [10], the “CASOB Obs (observed value)” value is listed as 20%. Also, the “SIDSP Obs (observed value)” value in assay [11] is 25%. The “SINAR Obs (observed value)” value in assay [12] stood at 65%. Also, the “Visual Weed Control (%) - 20 DAA ECHCO Obs” value in assay [13] (70 gae/ha), in assay [13] (140 gae/ha) and in [13] (280 gae/ha) was 0% each time.

`O=C(O)c1c(Cl)ccc2cc(Cl)cnc12` [Quinclorac, 3,7-dichloro-8-quinolinecarboxylic acid]: the “Visual Weed Control (%) - 21 DAA CYPES Obs” value in assay [14] (70 gai/ha), in assay [14] (140 gai/ha) and in assay [14] (280 gai/ha) was 0% throughout. In addition, the “Visual Weed Control (%) - 21 DAA CYPIR Obs” value in assay [7] (70 gai/ha), in [7] (140 gai/ha) and in [7] (280 gai/ha) was 0% throughout. Also, the “Visual Weed Control (%) - 21 DAA ISCRU Obs” value in [15] (140 gai/ha), in assay [15] (280 gai/ha) and in [15] (560 gai/ha) was 0% each time. For the same compound, the pest or weed control at 560 g/ha in [3] (480 h, 20 DAA, 560 gai/ha, read-out: Visual Weed Control (%) Obs) amounted to 20%. Further, the “Visual Weed Control (%) Obs” value was 0% in assay [9] (20 DAA, 560 gai/ha) and 0% in assay [19]. The “AMARE Ob (observed value)” value in assay [16] was found to be 27%. The “POLCO Ob (observed value)” value in [17] was 3%. For the same compound, the “VIOTR Ob (observed value)” value in assay [18] is reported as 0%. For the same compound, in assay [20], the “Visual Weed Control (%) - 20 DAA DIGSA Obs” value is recorded as 8%. Also, the “Visual Weed Control (%) - 21 DAA DIGSA Obs” value in assay [20] worked out at 8%. Further, the “Visual Weed Control (%) - 21 DAA ECHCG Obs” value turned out to be 15% in [21] (70 gai/ha), 30% in assay [21] (140 gai/ha) and 30% in assay [21] (280 gai/ha).

Consider `COc1c(Cl)ccc(-c2cc(N)c(Cl)c(C(=O)[O-])n2)c1F.[K+]` [Halauxifen K^+ Salt], for which the “Visual Weed Control (%) Obs” value stood at 30% in assay [22] (3.75 gae/ha), 40% in assay [22] (7.5 gae/ha), 50% in assay [22] (15 gae/ha) and 0% in assay [23].
